Assay results reported in patent publication US11585819B2, “Bistrifilate-based fluorogenic probes for detection of superoxide anion radical” (THE UNIVERSITY OF HONG KONG, priority 2014, dated 2023).
Where two headings read alike, the source gives them in different places.

Tests used:
[1] = test system: Hela (human cervical epithelial cancer cells), BV-2 (mouse microglia), RAW264.7 (mouse macrophages); assay: Confocal imaging with HKSOX-2 of O2^•− induced by mitochondrial respiratory inhibitors; type: cell-based; set-up: probe fluorescence response upon induction of mitochondrial O2^•−: dose or concentration left out as unconfirmed
Experimental: We also tested HKSOX-2 (5 μM) in detection of O2^•− induced by mitochondrial respiratory inhibitors (30 min treatment): antimycin A (complex III inhibitor; 10 μM), rotenone (complex I inhibitor; 10 μM) and FCCP ([…]; 10 μM). To validate the inhibitor effects, three different types of cell were used: Hela (human cervical epithelial cancer cells), BV-2 (mouse microglia), and RAW264.7 (mouse macrophages).
(§1) In each group, upper: fluorescence images; lower: fluorescence images merged with bright field images.

[2] = test system: HCT116 (human colon cancer cells), RAW264.7 (mouse macrophages), BV-2 (mouse microglia); assay: Confocal imaging with HKSOX-1r of O2^•− induced by mitochondrial respiratory inhibitors; type: cell-based
Experimental: To validate the inhibitor effects, three different types of cell were used: HCT116 (human colon cancer cells), RAW264.7 (mouse macrophages), and BV-2 (mouse microglia).
as §1
(left) Untreated cells incubated with probe alone for 30 min. (right) Cells co-incubated with probe and antimycin A (5 μM) for 30 min. Upper: fluorescence images; lower: fluorescence images merged with bright field images.

[3] = test system: mouse microglia (BV-2 cells); assay: Confocal imaging of endogenous O2^•− with HKSOX-2m in PMA-activated microglia; type: cell-based; details: 30 min; for effect on HKSOX-2m fluorescence in PMA-stimulated microglia: Mdivi-1 100 μM, Gö6983 100 nM
Experimental: (§2) We assessed the application of HKSOX-2m (2 μM) in confocal imaging of O2^•− in different types of cell. For detection of endogenous O2^•−, two different cell types were used: mouse macrophages (RAW264.7 cells) and mouse microglia (BV-2 cells). PMA (phorbol-12-myristate-13-acetate), a PKC activator and acute O2^•− inducer, was used to activate macrophages. The chemical scavenger TEMPOL (4-hydroxy-TEMPO; 300 μM) was used to remove O2^•− in activated macrophages. Mdivi-1 (100 μM), a Drp-1 (dynamin-related protein 1) inhibitor that inhibits mitochondrial fission and subsequent mitochondrial O2^•− production, was used to block mitochondrial O2^•− formation. Additionally, Gö6983 (100 nM), a PKC inhibitor, was used to abolish PMA-mediated effects in O2^•− induction.

[4] = test system: mouse macrophages (RAW264.7 cells); assay: Confocal imaging of endogenous O2^•− with HKSOX-2m in PMA-activated macrophages; type: cell-based; details: 30 min; for effect on HKSOX-2m fluorescence in PMA-stimulated macrophages: Mdivi-1 100 μM, Gö6983 100 nM
Experimental: as §2

[5] = test system: RAW264.7 mouse macrophages; assay: Confocal imaging of endogenous O2^•− with HKSOX-1r in LPS/IFN-γ activated macrophages; type: cell-based
Experimental: We assessed the application of HKSOX-1r in confocal imaging of O2^•− in different types of cell. For detection of endogenous O2^•−, we used mouse macrophages (RAW264.7 cells) as a cellular model. Bacterial lipopolysaccharide (LPS from Salmonella typhimurium; 500 ng/mL) and the proinflammatory cytokine interferon-γ (IFN-γ from mouse; 50 ng/mL) were used to activate macrophages. […] Additionally, the O2^•− decomposition catalyst FeTMPyP (50 μM) and chemical scavenger TEMPOL (4-hydroxy-TEMPO; 300 μM) were used to remove O2^•− in activated macrophages.
The cells were co-stained with mitochondrial dye MitoTracker Red (50 nM) and nuclear DNA dye Hoechst 33342 (150 ng/mL) for 30 min. Merged: all fluorescence images merged. (a) Untreated cells; (b) cells stimulated with LPS (500 ng/mL) and IFN-γ (50 ng/mL) for 14 h, followed by HKSOX-1r staining for 30 min; (c) cells co-treated with LPS/IFN-γ and gp91ds-tat (2 μM) for 14 h, followed by HKSOX-1r staining (30 min); (d) cells stimulated with LPS/IFN-γ for 14 h, followed by co-incubation of HKSOX-1r and FeTMPyP (50 μM) for 30 min; (e) cells stimulated with LPS/IFN-γ for 14 h, followed by co-incubation of HKSOX-1r and TEMPOL (300 μM) for 30 min.

[6] = Fluorescence response of probe to O2^•− generated by xanthine/xanthine oxidase and to other oxidants, reductants, esterase and GSH in phosphate buffer; details: 1 μM probe
Experimental: The stock solution of HKSOX-1 (10 mM) is diluted in 0.1 M potassium phosphate buffer at pH 7.4 to obtain a 10 μM solution, with excitation and emission spectra at 509 nm and 534 nm, respectively. As expected, the probe HKSOX-1 was non-fluorescent (FIG. 1).
The stock solution of HKSOX-2 (1 mM) is diluted in 0.1 M potassium phosphate buffer at pH 7.4 to obtain a 1 μM solution, with excitation and emission spectra at 535 nm and 562 nm, respectively.

[7] = test system: BV-2 mouse microglial cells; assay: Confocal imaging comparison of HKSOX-2m and MitoSOX Red with multiple superoxide inducers, co-staining with MitoTracker Green and Hoechst; type: cell-based; details: for fluorescence with various stimulants: 40 min; for fluorescence turn-on response: Ex 543 nm
Experimental: To further validate the performance of HKSOX-2m as a mitochondria-targeting superoxide probe, we conducted confocal imaging of HKSOX-2m with multiple superoxide inducers in BV-2 mouse microglial cells (FIG. 11), and compared HKSOX-2m's performance with that of MitoSOX Red™ (a widely used commercial fluorescent probe for mitochondrial superoxide detection; Invitrogen), by using the same drugs as stimulants (FIG. 12). Briefly, BV-2 cells were co-incubated for 40 min with probes (HKSOX-2m or MitoSOX Red™) and general superoxide inducers (PMA and zymosan, which elicit superoxide production from multiple superoxide sources including mitochondria) or specific mitochondrial superoxide inducers (diethyl succinate, diethyl malonate, and rotenone, which target the mitochondrial respiratory chain complexes). […] Slight spatial shifts in fluorescence signal were occasionally observed in the HKSOX-2m and MitoTracker Green channels, which could be accounted for by mitochondrial dynamics and time lag in confocal laser scanning for each channel. […] In fact, fluorescence distribution of the mitochondrial dye MitoTracker Green (Ex 488; Em 505 nm long-pass) was grossly distorted in the presence of MitoSOX Red™ (due to its broad tailing in emission spectrum), resulting in a loss of mitochondrial morphology.

[8] = test system: BV-2 mouse microglial cells; details: MitoSOX Red 5 μM (maximal dose according to manufacturer's protocol), extended incubation; cited from earlier work
[9] = TEMPOL 300 μM, readout HKSOX-2m 2 μM
[10] = 30 min, antimycin A, rotenone, FCCP 5 μM, malonic acid 500 μM, readout HKSOX-1r 2 μM
[11] = 30 min, antimycin A, rotenone, FCCP 10 μM, readout HKSOX-2

With `N#CC(C#N)=NNc1ccc(OC(F)(F)F)cc1` [FCCP] the “degree of efficacy in inducing mitochondrial O2^•− production (rank order)” value (from here on “degree of efficacy”) [1] was “antimycin A>FCCP>>rotenone” and the “degree of efficacy” value [2] was “antimycin A>FCCP>>rotenone>>malonic acid”.
In the case of `COc1ccc2c(c1)c(C1=C(c3c[nH]c4ccccc34)C(=O)NC1=O)cn2CCCN(C)C` [Gö6983], the “effect on HKSOX-2m fluorescence in PMA-stimulated microglia” value [3] is reported as “reduced to near basal level” and the “effect on HKSOX-2m fluorescence in PMA-stimulated macrophages” value [4] is reported as “reduced to near basal level”.
In the case of `COC(=O)CN(CC(=O)OC)C(=O)c1ccc2c(c1)C(=O)OC21c2cc(F)c(OS(=O)(=O)C(F)(F)F)c(F)c2Oc2c1cc(F)c(OS(=O)(=O)C(F)(F)F)c2F` [HKSOX-1r], the “probe fluorescence in stimulated macrophages relative to untreated ones” value ([5]; HKSOX-1r 2 μM, 30 min staining, LPS 500 ng/mL and IFN-γ 50 ng/mL for 14 h) is reported as “much stronger fluorescence signals” and the “probe fluorescence response upon induction of mitochondrial O2^•−” value ([2]; HKSOX-1r at 2 μM, 30 min) is reported as “strong fluorescence response”.
In the case of `CCOC(=O)CCCN1c2cc3c(cc2C(C)CC1(C)C)C1(OC(=O)c2ccccc21)c1cc(F)c(OS(=O)(=O)C(F)(F)F)c(F)c1O3` (stereo not drawn) [HKSOX-2], the “enhancement in fluorescence intensity upon O2^•−” value ([6]; 10 equiv of O2^•− generated by X/XO system, 15 min, pH 7.4) is reported as greater than 23 fold, the “increase in fluorescence signals by other oxidants, reductants, esterase and GSH” value ([6]; 10 equiv of H2O2, NO, 1O2, ROO•, TBHP, •OH, ONOO−, HOCl, Fe2+, ascorbic acid, 1,4-hydroquinone, esterase 10 U/mL, GSH 5 mM) is reported as “negligible increase” and the “probe fluorescence response upon induction of mitochondrial O2^•−” value ([1]; 30 min) is reported as “strong fluorescence response”.
For `CC1CC(C)(C)N(CCCC(=O)N2CCN(C(=O)CCCC[P+](c3ccccc3)(c3ccccc3)c3ccccc3)CC2)c2cc3c(cc21)C1(OC(=O)c2ccccc21)c1cc(F)c(OS(=O)(=O)C(F)(F)F)c(F)c1O3` (stereo not drawn) [HKSOX-2m], the “probe fluorescence in PMA-stimulated microglia relative to untreated ones” value ([3]; HKSOX-2m 2 μM, PMA 200 ng/mL) was “much stronger fluorescence signals”, the “probe fluorescence in PMA-stimulated macrophages relative to untreated ones” value ([4]; HKSOX-2m 2 μM, PMA 200 ng/mL) was “much stronger fluorescence signals” and the “fluorescence with various stimulants” value ([7]; HKSOX-2m 2 μM, PMA, zymosan, diethyl succinate, diethyl malonate, rotenone) was “moderate to strong fluorescence”. The fluorescence turn-on response ([7]; HKSOX-2m working dose 2 μM, Em 559-623 nm band-pass) was “highly efficient”.
With `COc1cc(-n2c(=S)[nH]c3ccccc3c2=O)c(Cl)cc1Cl` [Mdivi-1] the “effect on HKSOX-2m fluorescence in PMA-stimulated microglia” value [3] was “reduced to near basal level” and the “effect on HKSOX-2m fluorescence in PMA-stimulated macrophages” value [4] was “reduced to near basal level”.
For `Nc1ccc2c(c1)C(c1ccccc1)N(CCCCCC[P+](c1ccccc1)(c1ccccc1)c1ccccc1)c1cc(N)ccc1-2.[I-]` (stereo not drawn) [MitoSOX Red™], the “toxicity of the maximal dose” value [8] is given as “cytotoxic”, the “toxicity of the working dose” value ([7]; MitoSOX Red 4 μM) is given as “near-toxic” and the “fluorescence with various stimulants” value ([7]; MitoSOX Red 4 μM, same stimulants) is given as “low to moderate fluorescence”. The fluorescence turn-on response ([7]; MitoSOX Red working dose 4 μM) was “rather sluggish”.
For `CC1(C)CC(O)CC(C)(C)N1[O]` [TEMPOL, 4-hydroxy-TEMPO], the “effect on HKSOX-1r fluorescence in LPS/IFN-γ activated macrophages” value ([5]; FeTMPyP 50 μM or TEMPOL 300 μM co-incubated with HKSOX-1r for 30 min) was “substantially attenuated”, the “effect on the PMA-induced surge in O2^•− production” value [3, 9] was “greatly suppressed” and the “effect on the PMA-induced surge in O2^•− production” value [4, 9] was “greatly suppressed”.
In the case of `O=C(O)CC(=O)O` [malonic acid], the “degree of efficacy” value [2, 10] is reported as “antimycin A>FCCP>>rotenone>>malonic acid”.
With `C=C(C)[C@H]1Cc2c(ccc3c2O[C@@H]2COc4cc(OC)c(OC)cc4[C@@H]2C3=O)O1` [rotenone] the “degree of efficacy” value [1, 11] was “antimycin A>FCCP>>rotenone” and the “degree of efficacy” value [2, 10] was “antimycin A>FCCP>>rotenone>>malonic acid”.
In the case of antimycin A, the “degree of efficacy” value [1, 11] is reported as “antimycin A>FCCP>>rotenone” and the “degree of efficacy” value [2, 10] is reported as “antimycin A>FCCP>>rotenone>>malonic acid”.
